Source: patent US8916554B2, “Amino-derivatives as novel inhibitors of histone deacetylase” (Janssen Pharmaceutica N.V., priority 2002, dated 2014)
In brackets after ≈: the same amount, converted by molar mass. Like-named read-outs stand apart in the source and are kept apart here.

Columns and labels:
[1] = not given; remark: listed apart in the source
[2] = biological target: histone deacetylase (HDAC), HeLa nuclear extracts; assay: In vitro assay for inhibition of histone deacetylase; type: biochemical; set-up: key: pIC50 = negative log of IC50; details: [3H]acetylated histone H4 peptide substrate
Protocol: The in vitro assay for inhibition of histone deacetylase (see example C.1) measures the inhibition of HDAC enzymatic activity obtained with the compounds of formula (I).
HeLa nuclear extracts (supplier: Biomol) were incubated at 60 μg/ml with 2×10^−8 M of radiolabeled peptide substrate. As a substrate for measuring HDAC activity a synthetic peptide, i.e. the amino acids 14-21 of histone H4, was used. The substrate is biotinylated at the NH2-terminal part with a 6-aminohexanoic acid spacer, and is protected at the COOH-terminal part by an amide group and specifically [^3H]acetylated at lysine 16. The substrate, biotin-(6-aminohexanoic)Gly-Ala-([^3H]-acetyl-Lys-Arg-His-Arg-Lys-Val-NH2), was added in a buffer containing 25 mM Hepes, 1 M sucrose, 0.1 mg/ml BSA and 0.01% Triton X-100 at pH 7.4. After 30 min the deacetylation reaction was terminated by the addition of HCl and acetic acid. (final concentration 0.035 mM and 3.8 mM respectively). After stopping the reaction, the free ^3H-acetate was extracted with ethylacetate. After mixing and centrifugation, the radioactivity in an aliquot of the upper (organic) phase was counted in a β-counter.
For each experiment, controls (containing HeLa nuclear extract and DMSO without compound), a blank incubation (containing DMSO but no HeLa nuclear extract or compound) and samples (containing compound dissolved in DMSO and HeLa nuclear extract) were run in parallel. In first instance, compounds were tested at a concentration of 10^−5M. […] In each test the blank value was substracted from both the control and the sample values. The control sample represented 100% of substrate deactylation. For each sample the radioactivity was expressed as a percentage of the mean value of the controls. […] Herein the effects of test compounds are expressed as pIC50 (the negative log value of the IC50-value).

[3] = tested on: human A2780 ovarian carcinoma cells; assay: Determination of antiproliferative activity on A2780 cells (MTT); type: cell-based; details: four days of incubation; for IC50: Homo sapiens, 96 h, read-out: Cellular activity pIC50 (converted)
Protocol: Cellular activity of the compounds of formula (I) was determined on A2780 tumour cells using a colorimetric assay for cell toxicity or survival (Mosmann Tim, Journal of Immunological Methods 65: 55-63, 1983)(see example C.2).
All compounds tested were dissolved in DMSO and further dilutions were made in culture medium. Final DMSO concentrations never exceeded 0.1% (v/v) in cell proliferation assays. Controls contained A2780 cells and DMSO without compound and blanks contained DMSO but no cells. MTT was dissolved at 5 mg/ml in PBS. A glycine buffer comprised of 0.1 M glycine and 0.1 M NaCl buffered to pH 10.5 with NaOH (1 N) was prepared (all reagents were from Merck).
The human A2780 ovarian carcinoma cells (a kind gift from Dr. T. C. Hamilton [Fox Chase Cancer Centre, Pennsylvania, USA]) were cultured in RPMI 1640 medium supplemented with 2 mM L-glutamine, 50 μg/ml gentamicin and 10% fetal calf serum. Cells were routinely kept as monolayer cultures at 37° C. in a humidified 5% CO2 atmosphere. Cells were passaged once a week using a trypsin/EDTA solution at a split ratio of 1:40. All media and supplements were obtained from Life Technologies. Cells were free of mycoplasma contamination as determined using the Gen-Probe Mycoplasma Tissue Culture kit (supplier: BioMérieux).
Cells were seeded in NUNC™ 96-well culture plates (Supplier: Life Technologies) and allowed to adhere to the plastic overnight. Densities used for plating were 1500 cells per well in a total volume of 200 μl medium. After cell adhesion to the plates, medium was changed and drugs and/or solvents were added to a final volume of 200 μl. Following four days of incubation, medium was replaced by 200 μl fresh medium and cell density and viability was assessed using an MTT-based assay. To each well, 25 μl MTT solution was added and the cells were further incubated for 2 hours at 37° C. The medium was then carefully aspirated and the blue MTT-formazan product was solubilized by addition of 25 μl glycine buffer followed by 100 μl of DMSO. […] Within an experiment, the results for each experimental condition are the mean of 3 replicate wells. For initial screening purposes, compounds were tested at a single fixed concentration of 10^−6 M. For active compounds, the experiments were repeated to establish full concentration-response curves. For each experiment, controls (containing no drug) and a blank incubation (containing no cells or drugs) were run in parallel. The blank value was subtracted from all control and sample values. For each sample, the mean value for cell growth (in absorbance units) was expressed as a percentage of the mean value for cell growth of the control. […] Herein the effects of test compounds are expressed as pIC50 (the negative log value of the IC50-value).

[4] = Kinetic solubility in aqueous media; type: physicochemical; details: aqueous buffer, kinetic from dmso stock; phosphate citrate buffer pH 7.4, turbidity by nephelometer; read-out: Solubility Score
Protocol: Kinetic solubility in aqueous media measures the ability of a compound to stay in aqueous solution upon dilution (see example C.3).
DMSO-stock solutions are diluted with a single aqueous buffer solvent in 3 consecutive steps. For every dilution turbidity is measured with a nephelometer.
In the first dilution step, 10 μl of a concentrated stock-solution of the active compound, solubilized in DMSO (5 mM), was added to 100 μl phosphate citrate buffer pH 7.4 and mixed. In the second dilution step, an aliquot (20 μl) of the first dilution step was further dispensed in 100 μl phosphate citrate buffer pH 7.4 and mixed. Finally, in the third dilution step, a sample (20 μl) of the second dilution step was further diluted in 100 μl phosphate citrate buffer pH 7.4 and mixed. All dilutions were performed in 96-well plates. Immediately after the last dilution step the turbidity of the three consecutive dilution steps were measured with a nephelometer. Dilution was done in triplicate for each compound to exclude occasional errors. Based on the turbidity measurements a ranking is performed into 3 classes. Compounds with high solubility obtained a score of 3 and for this compounds the first dilution is clear. Compounds with medium solubility obtained a score of 2. For these compounds the first dilution is unclear and the second dilution is clear. […] The solubility of 14 compounds was measured.

Row | Compound | melting point | % metabolism ([1]; human, 15 min, 5 μM) | Enzyme activity pIC50 [2] | IC50 [3] | solubility [4] | Cellular activity pIC50 [3] | % metabolism ([1]; after 15 min of incubation with active microsomes (1 mg/ml), compound 5 μM)
1 | O=C(NO)c1ccc(NC2CCCN(S(=O)(=O)c3ccc(-c4ccccc4)cc3)CC2)nc1 (stereo not shown) (hydrate or solvate) [Co. No. 2] | 115 °C |  |  |  |  |  | 
2 | O=C(NO)c1ccc(NC2CCCN(S(=O)(=O)c3ccc4c(c3)CCCC4)CC2)nc1 (stereo not shown) (hydrate or solvate) [Co. No. 6] | 115 °C |  |  |  |  |  | 
3 | COc1cc(N)c(Cl)cc1C(=O)NC1CCN(CCCOc2ccc(F)cc2)CC1OC (stereo not shown) [Cisapride] |  | 45% |  |  |  |  | 
4 | O=C(NO)c1ccc(NC2CCN(S(=O)(=O)c3ccc4ccccc4c3)CC2)nc1 [Co. No. 1] | 160 °C |  | 7.676 | 2450 nM | > 454 µM |  | 
5 | O=C(NO)c1ccc(NC2CCCN(S(=O)(=O)c3ccc(-c4ccccc4)cc3)CC2)nc1 (stereo not shown) [Co. No. 2] |  |  | 6.871 | 1570 nM | < 75.8 µM |  | 
6 | O=C(NO)c1cnc(NC2CCCN(S(=O)(=O)c3ccc4ccccc4c3)CC2)nc1 (stereo not shown) [Co. No. 3] | 140 °C |  | 7.306 | 3120 nM | 75.8 to 454 µM (≈ 33.5 to 201 µg/mL) |  | 
7 | O=C(NO)c1cnc(NC2CCCN(S(=O)(=O)c3ccc(-c4ccccc4)cc3)CC2)nc1 (stereo not shown) [Co. No. 4] | 227 °C |  | 7.314 | 1450 nM | < 75.8 µM |  | 
8 | O=C(NO)c1cnc(NC2CCN(S(=O)(=O)c3ccc4ccccc4c3)CC2)nc1 [Co. No. 5] | 256 °C |  | 7.525 | 3370 nM | > 454 µM |  | 
9 | O=C(NO)c1ccc(NC2CCCN(S(=O)(=O)c3ccc4c(c3)CCCC4)CC2)nc1 (stereo not shown) [Co. No. 6] |  |  | 6.853 | 4520 nM | 75.8 to 454 µM (≈ 33.7 to 202 µg/mL) |  | 
10 | O=C(NO)c1cnc(NCC2CCN(S(=O)(=O)c3ccc4ccccc4c3)CC2)nc1 [Co. No. 7] | 240 °C |  | 7.408 | 7780 nM | < 75.8 µM |  | 
11 | O=C(NO)c1cnc(NCC2CCCN(S(=O)(=O)c3ccc4ccccc4c3)C2)nc1 (stereo not shown) [Co. No. 8] | 137 °C |  | 7.23 | 1900 nM | < 75.8 µM |  | 
12 | O=C(NO)c1cnc(NCC2CN(S(=O)(=O)c3ccc4ccccc4c3)CCO2)nc1 (stereo not shown) [Co. No. 9] | 226 °C |  | 7.161 | 2150 nM | > 454 µM |  | 
13 | O=C(NO)c1cnc(NC2CCN(S(=O)(=O)c3ccc(-c4ccccc4)cc3)CC2)nc1 [compound 14] |  |  | 7.077 |  |  | 5.201 | 
14 | CCCO [propanol] |  |  |  |  |  |  | 25%
